The structures appear in SMILES notation. Where only a bound is given, the exact number is not on record here.

In assay [1] the target is T1, human GR (Homo sapiens, UniProt P04150).
T1 sequence (P04150 1-777): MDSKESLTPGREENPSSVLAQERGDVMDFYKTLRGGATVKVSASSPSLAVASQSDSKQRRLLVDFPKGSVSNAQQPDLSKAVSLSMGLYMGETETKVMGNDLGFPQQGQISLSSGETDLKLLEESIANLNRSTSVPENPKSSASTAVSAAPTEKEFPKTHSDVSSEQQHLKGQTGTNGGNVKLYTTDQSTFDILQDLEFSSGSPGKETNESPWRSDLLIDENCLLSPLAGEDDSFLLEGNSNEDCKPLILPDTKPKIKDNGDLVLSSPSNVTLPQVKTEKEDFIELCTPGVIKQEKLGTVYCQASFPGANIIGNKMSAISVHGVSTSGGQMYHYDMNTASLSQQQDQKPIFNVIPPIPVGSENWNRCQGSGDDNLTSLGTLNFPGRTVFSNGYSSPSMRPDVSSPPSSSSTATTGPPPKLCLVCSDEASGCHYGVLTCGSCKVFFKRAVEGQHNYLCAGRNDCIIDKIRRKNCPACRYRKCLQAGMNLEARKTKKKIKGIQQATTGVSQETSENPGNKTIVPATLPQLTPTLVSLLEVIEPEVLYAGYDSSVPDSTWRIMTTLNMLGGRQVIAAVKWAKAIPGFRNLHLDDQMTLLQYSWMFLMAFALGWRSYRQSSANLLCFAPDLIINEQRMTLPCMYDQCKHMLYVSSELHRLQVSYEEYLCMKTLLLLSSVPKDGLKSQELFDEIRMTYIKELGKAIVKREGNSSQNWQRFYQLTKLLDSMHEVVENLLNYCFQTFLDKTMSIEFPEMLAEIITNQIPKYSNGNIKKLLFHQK
The assay is described as follows: Transrepression Assay (GITAR), TNFα-β-lactamase reporter in U937 cells. Conditions: for GITAR > GRAMM % SEP: GITAR Emax minus GRAMMER Emax. The assay is classed as cell-based. Further details: U937 cells contain an endogenous glucocorticoid receptor (GR); endogenous in cells; host or cells: U937 cells stably transfected with the TNF-alpha promoter/beta-lactamase reporter. An excerpt: This assay assesses the ability of test compounds to control transcription from the TNFα-β-lactamase reporter gene in U937 cells, a human myelomonocytic leukemia cell line that naturally expresses the human GR. The assay measures compound dependent-repression of the TNFa promoter linked to a reporter gene.
The human U937 cells that had been stablely transfected with the TNF-α promoter driving β-lactamase are used for this assay. U937 cells contain an endogenous glucocorticoid receptor (GR). Cells are maintained in RPMI 1640 Growth medium (Gibco Cat#11875-093) containing 25 mM HEPES, 10% FBS, 2 mM L-Glutamine, 1 mM Sodium pyruvate, 25 μg/ml Gentamicin (Gibco Cat#15710-064), 1:1000 2-Mercaptoethanol (Gibco Cat#21985-023) and 0.8 mg/ml G418 (Gibco Cat#10131-027). The density of the cells in the flask needs to be about 1×10^6−3×10^6/ml at the time of harvest. Usually, the cells are split to 1.2˜1.4×10^5/ml (1:10) 3 days prior to the assay. 50,000 cells/well are plated in 96 well black-walled plates the day of assay. Test compounds are added 10 μL/well, and cells are incubated at 37° C. for 30˜45 min. For assaying compounds, first dilute 1:10 in DMSO to make 1 mM, then further dilute 1:100 in medium to make 10× stock prior to adding to the cells. Add 50 ng/mlPMA (Sigma, cat# P8139) 10 μL/well to a final concentration 5 ng/ml, and 1 μg/ml LPS (Sigma, cat# L4130) 10 μL/well to a final concentration 100 ng/ml. Incubate cells at 37° C. overnight for ˜18 hr. PMA is stored frozen as 100 μg/ml stock in DMSO. Dilute 1:10 in DMSO for a working stock of 10 μg/ml and store at −20 C. For assaying, dilute the 10 μg/ml working stock 1:200 in medium to make a 10× solution (50 ng/ml). Store frozen LPS at 1 mg/ml in PBS, dilute 1:1000 in medium to make 10× (1 μg/ml) for the assay. Add 6× loading buffer (CCF2-AM) 20 μL/well, and incubate at room temperature for 70˜90 min. […] The activity repressed by 100 nM dexamethasone alone is set as 100% activity.

The target of assay [2] is T1, human GR. In words: Trans-Activation Modulation of Glucocorticoid Receptor (GRAMMER), MMTV-LUC reporter, agonist mode. Format: cell-based. Further details: endogenous in cells. The conditions noted are these: maximum activity; for Emax: A549, A549 cells, read-out: Transactivation A549 Cells GRAMMER Emax. The text has this: This assay assesses the ability of test compounds to control transcription from the MMTV-LUC reporter gene in lung adenocarcinoma A549 cells or MDA-MB-453 cells, a human breast cancer cell line that naturally expresses the human GR. The assay measures induction of a modified MMTV LTR/promoter linked to the LUC reporter gene.
The routine transient assay consists of plating 7,000-25,000 cells/well of a white, clear-bottom 96-well plate. Alternatively, 384-well plates can be used at a cell concentration of 10,000/well. The media that the cells are plated in is “exponential growth medium” which consists of phenol red-free RPMI1640 containing 10% FBS, 4 mM L-glutamine, 20 mM HEPES, 10 ug/mL human insulin, and 20 ug/mL gentamicin. Incubator conditions are 37° C. and 5% CO2. The transfection is done in batch mode. The cells are trypsinized and counted to the right cell number in the proper amount of fresh media. It is then gently mixed with the FuGene6/DNA mix and plated onto the 96 or 384-well plate, all the wells receive 100 uL or 40 uL, respectively, of medium+lipid/DNA complex then incubated 37° C. overnight. The transfection cocktail consists of serum-free OptiMEM, FuGene6 reagent and DNA. The manufacturer's (Roche Biochemical) protocol for cocktail setup is as follows: The lipid to DNA ratio is approximately 2.5:1 and the incubation time is 20 min at room temperature. Sixteen to 24 hours after transfection, the cells are treated with dexamethasone to a final concentration of 10 nM as well as the compound of interest, such that final DMSO (vehicle) concentration is equal to or less than 1%. Each plate also contains samples that are treated with 10 nM dexamethasone alone, which is used as the 100% activity control. The cells are exposed to the compounds for 24 hours. After 24 hours, the cells are lysed by a Promega cell culture lysis buffer for approximately 30 min and then the luciferase activity in the extracts is assayed in the 96-well format luminometer. In 384-well format, Steady-Glo (Promega) or Steady-Lite (PerkinElmer) can be used by adding an equal volume of reagent to the media present in each well. Activity induced by 10 nM dexamethasone alone is set at 100% activity. Antagonist activity is calculated by determining the decrease in dexamethasone-induced activity in response to compound treatment relative to samples that were treated with dexamethasone alone. […] This transactivation assay can be performed in an agonist and antagonist mode to identify these different activities.

Where [3] appears, read: U-937, U937 cells, maximum activity, read-out: Transrepression U937 Cells GITAR Emax.
[4] abbreviates: U-937, activity repressed by 100 nM dexamethasone alone set as 100%, read-out: maximal activity in the transrepression (GITAR) assay.

Regarding `C[C@]12Cc3cnn(-c4ccc(F)cc4)c3C=C1CC[C@@H]2CN(CC1CC1)S(=O)(=O)c1ccccc1Cl` [Example 12, 2-chloro-N-(cyclopropylmethyl)-N-{[(4αR,5S)-1-(4-fluorophenyl)-4α-methyl-1,4,4α,5,6,7-hexahydrocyclopenta[f]indazol-5-yl]methyl}benzenesulfonamide], in assay [1], the “GITAR > GRAMM % SEP” value is given as 29.8%. In addition, the Emax is 64.2% in assay [1] (setting [3]), greater than 5% in assay [1] (setting [4]) and 34.4% in assay [2].

Consider `C[C@]12Cc3cnn(-c4ccc(F)cc4)c3C=C1CC[C@@H]2CN(CC1CC1)S(=O)(=O)c1ccccc1Cl` [Example 22, 2-chloro-N-(cyclopropylmethyl)-N-{[(4αR,5S)-1-(4-fluorophenyl)-4α-methyl-1,4,4α,5,6,7-hexahydrocyclopenta[f]indazol-5-yl]methyl}benzenesulfonamide], for which the “GITAR > GRAMM % SEP” value in assay [1] came out at 43.9%. Further, the “Transrepression U937 Cells GITAR Emax” value in assay [1] (U937 cells, maximum activity) is given as 71.8%. Also, the “Transactivation A549 Cells GRAMMER Emax” value in assay [2] (A549 cells) worked out at 27.9%.

Consider `C[C@]12Cc3cnn(-c4ccc(F)cc4)c3C=C1CC[C@@H]2CN(CCO)S(=O)(=O)c1ccc(-c2cnco2)s1` [Example 57, N-{[(4αR,5S)-1-(4-fluorophenyl)-4α-methyl-1,4,4α,5,6,7-hexahydrocyclopenta[f]indazol-5-yl]methyl}-N-(2-hydroxyethyl)-5-(1,3-oxazol-5-yl)thiophene-2-sulfonamide], for which, in assay [1], the “GITAR > GRAMM % SEP” value came to 21.0%. For the same compound, the Emax is 23.8% in assay [1] (setting [3]), greater than 5% in assay [1] (setting [4]) and 2.7% in assay [2].

For the compound `C[C@]12Cc3cnn(-c4ccc(F)cc4)c3C=C1CC[C@@H]2CN(CCO)S(=O)(=O)c1ccc(C#N)cc1` [Example 62, 4-cyano-N-{[(4αR,5S)-1-(4-fluorophenyl)-4α-methyl-1,4,4α,5,6,7-hexahydrocyclopenta[f]indazol-5-yl]methyl}-N-(2-hydroxyethyl)benezenesulfonamide], the “GITAR > GRAMM % SEP” value in assay [1] came to 42.5%. The Emax in assay [1] (setting [3]) is 68.5%; in assay [1] (setting [4]) it was greater than 5%; in assay [2], 26%.

Take `C[C@]12Cc3cnn(-c4ccc(F)cc4)c3C=C1CC[C@@H]2CN(CCc1ccccc1F)S(=O)(=O)C1CC1` [Example 101, N-[2-(2-fluorophenyl)ethyl]-N-{[(4αR,5S)-1-(4-fluorophenyl)-4α-methyl-1,4,4α,5,6,7-hexahydrocyclopenta[f]indazol-5-yl]methyl}cyclopropanesulfonamide]: the “GITAR > GRAMM % SEP” value in assay [1] stood at 32.6%. For the same compound, the figures for the Emax in assay [1] (setting [3]), in assay [1] (setting [4]) and in assay [2] were 95.4%, greater than 5% and 62.8%, respectively.

The record behind these values is patent US8299048B2, “Hexahydrocyclopentyl[f]indazole sulfonamides and derivatives thereof as selective glucocorticoid receptor modulators” (Merck Sharp & Dohme Corp., priority 2008, dated 2012).
